Source: publication PMC4184702 (Pharmacology Research & Perspectives, 2014)
Entries after “also recorded” stand apart in the source; their conditions may differ.

Tests used:
[1] = tested on: 51 other CNS neurotransmitter receptors and transporters; experiment: Broad-range screening (PDSP), summary; type: binding; details: 10 μmol/L
Description: (§1) For experimental details, please refer to the Psychoactive Drug Screening Program (PDSP) web site http://pdsp.med.unc.edu/.
(§2) ^a The default concentration for primary binding experiments is 10 µM (n = 4). ^b Negative inhibition represents a stimulation of binding. ^c BZPR: Benzodiazepine Receptors (rat brain site). ^d DOR: Delta Opioid Receptor; KOR: Kappa Opioid Receptor; MOR: Mu Opioid Receptor. ^e DAT: Dopamine Transporter; NET: Norepinephrine Transporter; SERT: Serotonin Transporter. ^f NMDA: N-methyl-D-aspartate receptor.

5-HT1D = target: T1, 5-HT1D (Homo sapiens, UniProt P28221); experiment: PDSP primary binding, 5-HT1D; details: n = 4, read-out: Inhibition (primary binding competition efficacy), 5-HT1D
T1 construct: purchased NIMH Psychoactive Drug Screening Program (PDSP)
Description: as §1, §2

5-HT2B = target: T2, 5-HT2B (Homo sapiens, UniProt P41595); experiment: PDSP primary binding, 5-HT2B; details: n = 4, read-out: Inhibition (primary binding competition efficacy), 5-HT2B
T2 construct: purchased NIMH Psychoactive Drug Screening Program (PDSP)
Description: as §1, §2

D1 dopamine receptor = target: T3, D1 dopamine receptor (Homo sapiens, UniProt P21728); experiment: PDSP primary binding, D1; details: n = 4, read-out: Inhibition (primary binding competition efficacy), D1
T3 construct: purchased NIMH Psychoactive Drug Screening Program (PDSP)
Description: as §1, §2

D2 dopamine receptor = target: T4, D2 dopamine receptor (Homo sapiens, UniProt P14416); experiment: PDSP primary binding, D2; details: n = 4, read-out: Inhibition (primary binding competition efficacy), D2
T4 construct: purchased NIMH Psychoactive Drug Screening Program (PDSP)
Description: as §1, §2

β2 adrenergic receptor = target: T5, β2 adrenergic receptor (Homo sapiens, UniProt P07550); experiment: PDSP primary binding, β2; details: n = 4, read-out: Inhibition (primary binding competition efficacy), β2
T5 construct: purchased NIMH Psychoactive Drug Screening Program (PDSP)
Description: as §1, §2

[2] = target: T6, KOR: Kappa Opioid Receptor (Homo sapiens, UniProt P41145); experiment: PDSP primary binding, KOR; details: n = 4, read-out: Inhibition (primary binding competition efficacy), KOR
T6 construct: purchased NIMH Psychoactive Drug Screening Program (PDSP)
Description: as §1, §2

M2 muscarinic receptor = target: T7, M2 muscarinic receptor (Homo sapiens, UniProt P08172); experiment: PDSP primary binding, M2; details: n = 4, read-out: Inhibition (primary binding competition efficacy), M2
T7 construct: purchased NIMH Psychoactive Drug Screening Program (PDSP)
Description: as §1, §2

Oxytocin = target: T8, Oxytocin (Homo sapiens, UniProt P30559); experiment: PDSP primary binding, Oxytocin; details: n = 4, read-out: Inhibition (primary binding competition efficacy), Oxytocin
T8 construct: purchased NIMH Psychoactive Drug Screening Program (PDSP)
Description: as §1, §2

[3] = target: T9, human muscle-type α1β1γδ-nAChR (Homo sapiens, UniProt P02708+P07510+Q07001); experiment: 86Rb+ ion efflux assay, TE671/RD cells; type: cell-based; details: 86Rb+ ion flux assay
T9 construct: TE671/RD naturally expresses human muscle-type α1*-nAChRs; endogenous in cells; host or cells: TE671/RD human clonal cell line
Source text: Cell lines naturally or heterologously expressing specific, functional, human nAChR subtypes were used. The human clonal cell line TE671/RD naturally expresses human muscle-type α1*-nAChRs, containing α1, β1, γ, and δ subunits, with function detectable using ^86Rb^+ efflux assays. […] These cells heterologously express human nAChR chimeric (α6/3) subunits (wherein the extracellular, N-terminal, ligand-binding domain of the human nAChR α6 subunit replaces that domain in the nAChR α3 subunit) along with human β2 and β3 subunits. […] Cells were passaged once a week by splitting just-confluent cultures 1/300 (TE671/RD), 1/10 (SH-SY5Y), or 1/40 (transfected SH-EP1) in serum-supplemented medium to maintain log-phase growth.
One newer modification on these techniques involves low temperature incubation before assays to increase the surface expression of high sensitivity (HS) relative to low sensitivity (LS) α4β2 nAChRs and to enhance surface expression of (α6/3)β2β3-nAChRs. […] In brief, this allows us to determine efficacies of test compounds at LS and HS α4β2 nAChRs, respectively, as the ordinate values of the linear regressions at abscissa values of 0% and 100% of sazetidine-A efficacy.
Results are normalized to responses to a fully efficacious concentration of carbamylcholine (see Materials and Methods for details). […]

[4] = Bacterial cytotoxicity, strain TA100; type: cell-based; details: Salmonella typhimurium, bacterial tester strain TA100 without S9, read-out: Cytotoxicity (% of Control Values)
Source text: Supplement prp20002-e00026-sd1.doc, table 4: Table 4.

Male Balb/CJ mice = experiment: Forced swim test; type: in vivo, mouse
Source text: Male Balb/CJ mice (Jackson Laboratories, Bar Harbor, ME) were used in the forced swim test (FST). Upon receipt, mice were assigned unique identification numbers (tail marked) and were group-housed in OptiMICE ventilated cages. Mice were acclimated to the colony room for at least 1 week prior to drug administration. Mice were 8–10 weeks of age at time of FST.
Procedures have been previously described (Porsolt et al. [1977]). Naïve mice were individually placed into clear glass cylinders (15 cm tall × 10 cm wide, 1 L beakers) containing 23 ± 1°C water 12 cm deep (∼800 mL). […] Thirty minutes following the administration, mice were placed in the water, and the time the animal spent immobile was recorded over a 6-min trial. Immobility was defined as the postural position of floating in the water. Only one session is required for the forced swim test in mice.

T5 sequence (P07550 whole entry): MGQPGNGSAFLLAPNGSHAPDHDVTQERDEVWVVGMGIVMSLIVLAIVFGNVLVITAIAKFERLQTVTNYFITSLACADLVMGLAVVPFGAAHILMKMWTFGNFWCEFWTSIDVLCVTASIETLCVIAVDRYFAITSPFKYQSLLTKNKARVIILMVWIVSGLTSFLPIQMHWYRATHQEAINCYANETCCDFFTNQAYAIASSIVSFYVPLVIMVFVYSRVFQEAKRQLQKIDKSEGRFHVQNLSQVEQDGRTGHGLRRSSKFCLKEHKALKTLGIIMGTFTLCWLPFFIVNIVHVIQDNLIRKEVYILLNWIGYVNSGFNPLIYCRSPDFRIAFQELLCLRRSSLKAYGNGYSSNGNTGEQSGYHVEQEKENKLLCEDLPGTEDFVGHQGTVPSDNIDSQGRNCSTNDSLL
T6 sequence (P41145 whole entry): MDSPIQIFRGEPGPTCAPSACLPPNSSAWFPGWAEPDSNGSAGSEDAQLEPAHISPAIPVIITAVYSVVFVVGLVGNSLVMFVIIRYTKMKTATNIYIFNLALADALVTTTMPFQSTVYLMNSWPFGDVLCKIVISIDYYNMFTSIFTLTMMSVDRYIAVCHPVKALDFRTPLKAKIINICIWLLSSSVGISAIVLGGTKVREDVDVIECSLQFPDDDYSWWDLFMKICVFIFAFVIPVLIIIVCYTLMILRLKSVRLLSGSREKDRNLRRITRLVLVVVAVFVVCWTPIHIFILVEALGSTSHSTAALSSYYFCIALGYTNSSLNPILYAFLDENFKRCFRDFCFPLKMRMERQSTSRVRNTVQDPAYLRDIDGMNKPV
T7 sequence (P08172 whole entry): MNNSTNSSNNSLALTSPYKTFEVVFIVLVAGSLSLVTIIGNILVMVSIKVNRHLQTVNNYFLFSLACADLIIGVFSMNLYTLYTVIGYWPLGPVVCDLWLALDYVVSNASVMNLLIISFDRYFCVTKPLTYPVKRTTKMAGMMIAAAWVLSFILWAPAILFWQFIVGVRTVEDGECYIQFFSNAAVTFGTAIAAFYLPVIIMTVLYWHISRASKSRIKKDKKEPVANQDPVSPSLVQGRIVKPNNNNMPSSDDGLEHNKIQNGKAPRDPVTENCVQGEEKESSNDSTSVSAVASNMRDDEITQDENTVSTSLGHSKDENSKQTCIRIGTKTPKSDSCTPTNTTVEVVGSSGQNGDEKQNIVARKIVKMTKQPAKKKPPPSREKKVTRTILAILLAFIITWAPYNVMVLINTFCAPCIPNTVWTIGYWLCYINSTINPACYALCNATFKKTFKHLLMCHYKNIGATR
T3 sequence (P21728 whole entry): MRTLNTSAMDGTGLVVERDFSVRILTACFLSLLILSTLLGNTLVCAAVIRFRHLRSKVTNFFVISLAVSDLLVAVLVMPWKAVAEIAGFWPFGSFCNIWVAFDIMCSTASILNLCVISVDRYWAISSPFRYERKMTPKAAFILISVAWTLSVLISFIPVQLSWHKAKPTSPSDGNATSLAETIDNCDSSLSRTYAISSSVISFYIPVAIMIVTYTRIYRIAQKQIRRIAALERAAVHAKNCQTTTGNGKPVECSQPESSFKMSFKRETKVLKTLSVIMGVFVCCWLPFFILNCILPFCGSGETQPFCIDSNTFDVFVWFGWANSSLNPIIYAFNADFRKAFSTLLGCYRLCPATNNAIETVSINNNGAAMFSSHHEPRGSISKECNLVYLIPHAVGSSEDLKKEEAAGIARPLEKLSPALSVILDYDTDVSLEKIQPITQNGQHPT
T4 sequence (P14416 whole entry): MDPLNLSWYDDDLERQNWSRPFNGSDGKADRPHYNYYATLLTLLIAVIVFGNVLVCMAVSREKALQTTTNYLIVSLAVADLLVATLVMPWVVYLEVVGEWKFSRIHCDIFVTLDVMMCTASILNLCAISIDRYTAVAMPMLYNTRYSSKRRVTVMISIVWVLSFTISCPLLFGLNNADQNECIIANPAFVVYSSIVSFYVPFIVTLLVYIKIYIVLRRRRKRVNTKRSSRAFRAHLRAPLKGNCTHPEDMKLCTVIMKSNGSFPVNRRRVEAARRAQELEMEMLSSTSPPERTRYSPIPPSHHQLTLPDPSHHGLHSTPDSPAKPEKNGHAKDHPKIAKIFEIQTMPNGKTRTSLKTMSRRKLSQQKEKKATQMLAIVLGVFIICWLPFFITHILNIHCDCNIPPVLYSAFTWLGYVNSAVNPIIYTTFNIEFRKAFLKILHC
T9 sequence (P02708 21-457): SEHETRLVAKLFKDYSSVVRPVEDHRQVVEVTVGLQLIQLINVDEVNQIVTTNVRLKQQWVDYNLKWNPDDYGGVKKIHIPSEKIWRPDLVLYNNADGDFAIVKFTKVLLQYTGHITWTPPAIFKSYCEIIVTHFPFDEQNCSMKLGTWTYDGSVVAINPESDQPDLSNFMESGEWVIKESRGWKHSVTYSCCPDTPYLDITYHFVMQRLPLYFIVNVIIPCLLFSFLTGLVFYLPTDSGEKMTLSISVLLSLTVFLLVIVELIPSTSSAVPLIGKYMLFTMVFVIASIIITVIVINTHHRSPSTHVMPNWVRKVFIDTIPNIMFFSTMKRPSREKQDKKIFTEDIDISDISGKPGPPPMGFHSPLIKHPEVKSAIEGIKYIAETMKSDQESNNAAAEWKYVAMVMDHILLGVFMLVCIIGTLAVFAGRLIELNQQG
T9 sequence (P11230 24-501 partner): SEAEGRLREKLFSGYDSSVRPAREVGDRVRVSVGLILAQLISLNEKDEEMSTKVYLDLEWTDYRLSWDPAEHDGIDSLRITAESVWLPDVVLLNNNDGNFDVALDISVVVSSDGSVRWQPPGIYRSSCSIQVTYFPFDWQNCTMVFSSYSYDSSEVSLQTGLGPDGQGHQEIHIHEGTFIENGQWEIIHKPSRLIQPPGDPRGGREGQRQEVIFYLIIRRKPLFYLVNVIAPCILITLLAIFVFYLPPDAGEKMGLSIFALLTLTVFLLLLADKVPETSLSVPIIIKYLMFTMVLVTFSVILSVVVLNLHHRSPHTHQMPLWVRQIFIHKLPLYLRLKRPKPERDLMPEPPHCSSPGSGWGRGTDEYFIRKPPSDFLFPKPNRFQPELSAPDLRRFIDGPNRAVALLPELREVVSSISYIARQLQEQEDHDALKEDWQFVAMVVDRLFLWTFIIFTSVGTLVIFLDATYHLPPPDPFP
T9 sequence (P07510 23-517): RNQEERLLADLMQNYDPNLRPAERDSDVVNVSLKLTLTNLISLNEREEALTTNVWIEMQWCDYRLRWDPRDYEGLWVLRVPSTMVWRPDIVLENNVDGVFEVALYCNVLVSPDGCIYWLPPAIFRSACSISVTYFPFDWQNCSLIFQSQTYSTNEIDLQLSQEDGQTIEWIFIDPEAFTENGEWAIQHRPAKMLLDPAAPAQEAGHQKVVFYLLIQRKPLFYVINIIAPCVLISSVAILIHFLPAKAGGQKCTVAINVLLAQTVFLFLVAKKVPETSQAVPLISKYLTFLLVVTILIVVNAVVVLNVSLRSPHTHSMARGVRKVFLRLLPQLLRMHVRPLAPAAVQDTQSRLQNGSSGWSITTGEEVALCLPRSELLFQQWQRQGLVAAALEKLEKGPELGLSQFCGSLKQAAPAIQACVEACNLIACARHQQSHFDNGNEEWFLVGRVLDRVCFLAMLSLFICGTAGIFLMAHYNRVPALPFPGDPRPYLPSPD
T9 sequence (Q07001 22-517): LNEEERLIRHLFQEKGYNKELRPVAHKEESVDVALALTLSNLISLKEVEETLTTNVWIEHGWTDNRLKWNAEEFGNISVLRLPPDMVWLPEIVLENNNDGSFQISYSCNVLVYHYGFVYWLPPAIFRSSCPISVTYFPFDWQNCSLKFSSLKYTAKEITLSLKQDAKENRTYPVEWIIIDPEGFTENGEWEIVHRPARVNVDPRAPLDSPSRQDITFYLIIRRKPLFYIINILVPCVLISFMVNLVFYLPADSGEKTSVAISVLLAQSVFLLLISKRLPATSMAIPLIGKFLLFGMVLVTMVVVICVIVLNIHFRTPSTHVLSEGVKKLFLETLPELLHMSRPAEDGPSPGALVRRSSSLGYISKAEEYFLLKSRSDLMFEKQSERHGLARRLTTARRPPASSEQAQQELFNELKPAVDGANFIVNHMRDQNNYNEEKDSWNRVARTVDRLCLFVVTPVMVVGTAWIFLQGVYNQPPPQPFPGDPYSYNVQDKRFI
T1 sequence (P28221 whole entry): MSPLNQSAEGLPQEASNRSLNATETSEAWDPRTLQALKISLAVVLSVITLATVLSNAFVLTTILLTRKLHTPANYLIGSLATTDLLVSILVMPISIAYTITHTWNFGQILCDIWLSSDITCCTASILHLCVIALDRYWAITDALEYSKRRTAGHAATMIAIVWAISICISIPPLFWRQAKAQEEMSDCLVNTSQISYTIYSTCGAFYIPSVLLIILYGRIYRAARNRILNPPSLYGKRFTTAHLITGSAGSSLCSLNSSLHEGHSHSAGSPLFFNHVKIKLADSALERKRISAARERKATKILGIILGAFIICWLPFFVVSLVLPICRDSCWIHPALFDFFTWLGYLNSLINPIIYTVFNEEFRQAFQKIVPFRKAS
T2 sequence (P41595 whole entry): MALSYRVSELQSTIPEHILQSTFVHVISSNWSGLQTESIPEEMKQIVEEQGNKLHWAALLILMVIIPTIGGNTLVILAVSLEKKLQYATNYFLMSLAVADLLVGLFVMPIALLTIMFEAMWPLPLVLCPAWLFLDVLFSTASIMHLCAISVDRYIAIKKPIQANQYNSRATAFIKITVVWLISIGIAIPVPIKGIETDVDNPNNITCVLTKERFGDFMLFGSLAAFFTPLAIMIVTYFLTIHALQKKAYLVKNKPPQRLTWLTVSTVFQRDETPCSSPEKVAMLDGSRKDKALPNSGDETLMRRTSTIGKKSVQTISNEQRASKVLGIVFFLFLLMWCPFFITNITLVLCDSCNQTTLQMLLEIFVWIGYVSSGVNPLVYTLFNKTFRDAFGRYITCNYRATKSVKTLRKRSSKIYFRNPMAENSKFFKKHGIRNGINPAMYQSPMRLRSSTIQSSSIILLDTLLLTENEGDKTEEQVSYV

With `OCCc1cc(-c2cncc(OC[C@@H]3CCN3)c2)on1` [LF-3-88, 2-[5-[5-(2(S)-azetidinylmethoxyl)-3-pyridyl]-3-isoxazolyl]ethanol] the “inhibition across 51 other CNS neurotransmitter receptors and transporters” value [1] was ≤ 50%, the inhibition at 10 µM (5-HT1D) was -14.9% and the inhibition at 10 µM (5-HT2B) was 7.9%. For the same compound, the inhibition at 10 µM (D1 dopamine receptor) was 5.8%, the inhibition at 10 µM (D2 dopamine receptor) was 17.2% and the inhibition at 10 µM (β2 adrenergic receptor) was 6.8%. For the same compound, the inhibition at 10 µM [2] was 3%, the inhibition at 10 µM (M2 muscarinic receptor) was 6.8% and the inhibition at 10 µM (Oxytocin) was 6.4%. For the same compound, the “agonist or antagonist activity at muscle-type α1β1γδ-nAChRs” value [3] was “no significant agonist or antagonist activity”, the viability at 0.0001 M ([4]; strain TA100 – S9, 1.0E-04 M) was 139% and the viability at 10 µM ([4]; strain TA100 – S9, 1.0E-05 M) was 103%. It also gave a viability at 1.25 µM ([4]; strain TA100 – S9, 1.25E-06 M) of 102%, a viability at 25 µM ([4]; strain TA100 – S9, 2.5E-05 M) of 115% and a viability at 2.5 µM ([4]; strain TA100 – S9, 2.5E-06 M) of 99%. The viability at 50 µM ([4]; strain TA100 – S9, 5.0E-05 M) was 125%, the viability at 5 µM ([4]; strain TA100 – S9, 5.0E-06 M) was 103% and the viability at 625 nM ([4]; strain TA100 – S9, 6.25E-07 M) was 101%. For the same compound, the “immobility in forced swim test” value (Male Balb/CJ mice; 1, 3, and 10 mg/kg, p.o.) was “decreased immobility; also recorded: reduce the immobility dose-dependently”, the “immobility in forced swim test” value (Male Balb/CJ mice; 1 and 3 mg/kg, i.p., 30 min pretreatment, 6-min trial, vs water) was “decreased immobility; also recorded: dose-dependently reduced immobility” and the “minimum effective dose in forced swim test” value (Male Balb/CJ mice; i.p.) was 1 mg/kg.
